Consider 21 molecules from US9328099B2, “Cyanomethylpyrazole carboxamides as janus kinase inhibitors” (Merck Sharp & Dohme Corp., priority 2011, dated 2016).

For one assay, the target named is JAK2 (Homo sapiens (Human), UniProt O60674). Kind of assay: Jak Biochemical HTRF Assay, JAK2. The conditions noted are these: HTRF biochemical assay, GST-tagged catalytic domain; top concentration tested […]. An excerpt: (§1) Jak Biochemical HTRF Assay Protocol
(§2) Subsequent reagent additions employed an Agilent Bravo.
Background: Time-resolved FRET reads energy transfer from a long-lived donor to a nearby acceptor.

The next assay addresses JAK1 (Homo sapiens (Human), UniProt P23458). Kind of assay: Jak Biochemical HTRF Assay, JAK1. The following applies: HTRF biochemical assay, GST-tagged catalytic domain; top concentration tested […]; read-out: JAK1 IC50.
From the text: as §1, §2

Chain of JAK1 (P23458 875-1153): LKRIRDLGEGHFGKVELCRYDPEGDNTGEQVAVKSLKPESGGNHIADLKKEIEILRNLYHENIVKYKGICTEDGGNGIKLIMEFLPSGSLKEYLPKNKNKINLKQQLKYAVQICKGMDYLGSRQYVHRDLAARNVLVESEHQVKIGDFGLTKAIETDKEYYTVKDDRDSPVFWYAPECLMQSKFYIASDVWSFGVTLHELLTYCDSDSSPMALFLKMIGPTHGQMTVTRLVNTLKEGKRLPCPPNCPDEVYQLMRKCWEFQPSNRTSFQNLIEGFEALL
Chain of JAK2 (O60674 849-1124): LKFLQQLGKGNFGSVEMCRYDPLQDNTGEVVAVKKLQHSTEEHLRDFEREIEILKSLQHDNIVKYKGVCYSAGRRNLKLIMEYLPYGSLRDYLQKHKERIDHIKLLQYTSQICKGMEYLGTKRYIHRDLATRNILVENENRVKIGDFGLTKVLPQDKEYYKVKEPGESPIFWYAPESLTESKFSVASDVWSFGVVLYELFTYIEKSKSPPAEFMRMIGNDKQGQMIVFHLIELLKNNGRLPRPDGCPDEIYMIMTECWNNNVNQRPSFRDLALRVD

As to `N#CCC1(n2cc(C(N)=O)c(Nc3ccnc(F)c3)n2)CCC(NCc2ccc(F)cc2)CC1` (stereo not drawn) [Example 41-25, Cis or trans 1-{1-(cyanomethyl)-4-[(4-fluorobenzyl)amino]cyclohexyl}-3-[(2-fluoropyridin-4-yl)amino]-1H-pyrazole-4-carboxamide], the IC50 (commonly the concentration that gives 50% inhibition) turned out to be 1080 nM at JAK2 and 27 nM at JAK1.

For `N#CCC1(n2cc(C(N)=O)c(Nc3ccccc3)n2)CCN(C(=O)CN2CCCC2=O)CC1` [Example 34-15, 1-{4-(cyanomethyl)-1-[(2-oxopyrrolidin-1-yl)acetyl]piperidin-4-yl}-3-(phenylamino)-1H-pyrazole-4-carboxamide], the figures for the IC50 against JAK2 and on JAK1 were 194 nM and 5 nM, respectively.

Take `CC(C)(C)OC(=O)N1CCC(CC#N)(n2cc(C(N)=O)c(Nc3ccc(C#N)cc3)n2)CC1` [Example 9-5, tert-butyl 4-{4-carbamoyl-3-[(4-cyanophenyl)amino]-1H-pyrazol-1-yl}-4-(cyanomethyl)piperidine-1-carboxylate]: the IC50 is 6 nM at JAK2 and 0.2 nM at JAK1.

Take `N#CCC1(n2cc(C(N)=O)c(Nc3ccnc(C4CC4)c3)n2)CCN(C(=O)OCC(F)F)CC1` [Example 9-41, 2,2-difluoroethyl 4-{4-carbamoyl-3-[(2-cyclopropylpyridin-4-yl)amino]-1H-pyrazol-1-yl}-4-(cyanomethyl)piperidine-1-carboxylate]: the half-maximal inhibitory concentration (IC50) at JAK2 amounted to 201 nM; on JAK1 it was 6 nM.

Consider `CC(O)(C(=O)N1CCC(CC#N)(n2cc(C(N)=O)c(Nc3ccnc(F)c3)n2)CC1)C(F)F` (stereo not drawn) [Example 34-61, 1-[4-(cyanomethyl)-1-(3,3-difluoro-2-hydroxy-2-methylpropanoyl)piperidin-4-yl]-3-[(2-fluoropyridin-4-yl)amino]-1H-pyrazole-4-carboxamide], for which the IC50 on JAK2 amounted to 38 nM; at JAK1, 2 nM.

As for `N#CCC1(n2cc(C(N)=O)c(Nc3ccc(F)cc3)n2)CCN(c2cccc(C3CC3)c2)CC1` [Example 3-17, 1-[4-(cyanomethyl)-1-(3-cyclopropylphenyl)piperidin-4-yl]-3-[(4-fluorophenyl)amino]-1H-pyrazole-4-carboxamide], the IC50 was found to be 780 nM on JAK2 and 32 nM at JAK1.

Turning to `COC(=O)N1CCC(CC#N)(n2cc(C(N)=O)c(Nc3ccccc3)n2)CC1` [Example 27-5, methyl 4-[4-carbamoyl-3-(phenylamino)-1H-pyrazol-1-yl]-4-(cyanomethyl)piperidine-1-carboxylate], the figures for the IC50 against JAK2 and at JAK1 were 235 nM and 50 nM, respectively.

On to `N#CCC1(n2cc(C(N)=O)c(Nc3ccnc(F)c3)n2)CCC(Nc2ccc(F)c(F)c2)CC1` (stereo not drawn) [Example 40-36, Cis or trans 1-{1-(cyanomethyl)-4-[(3,4-difluorophenyl)amino]cyclohexyl}-3-[(2-fluoropyridin-4-yl)amino]-1H-pyrazole-4-carboxamide], for which the values for the IC50 on JAK2 and on JAK1 were > 1500 nM and 65 nM, respectively.

With `Cc1cc(N2CCC(CC#N)(n3cc(C(N)=O)c(Nc4ccc(F)cc4)n3)CC2)ccc1F` [Example 3-42, 1-[4-(cyanomethyl)-1-(4-fluoro-3-methylphenyl)piperidin-4-yl]-3-[(4-fluorophenyl)amino]-1H-pyrazole-4-carboxamide], the IC50 on JAK2 stood at 287 nM; on JAK1 it was 12 nM.

On to `Cc1ncncc1N1CCC(CC#N)(n2cc(C(N)=O)c(Nc3ccc(F)cc3)n2)CC1` [Example 3-47, 1-[4-(cyanomethyl)-1-(4-methylpyrimidin-5-yl)piperidin-4-yl]-3-[(4-fluorophenyl)amino]-1H-pyrazole-4-carboxamide], for which the figures for the IC50 at JAK2 and at JAK1 were 181 nM and 13 nM, respectively.

Take `CN1CCN(CCOC(=O)N2CCC(CC#N)(n3cc(C(N)=O)c(Nc4ccccc4)n3)CC2)CC1` [Example 30-43, 2-(4-methylpiperazin-1-yl)ethyl 4-[4-carbamoyl-3-(phenylamino)-1H-pyrazol-1-yl]-4-(cyanomethyl)piperidine-1-carboxylate]: the IC50 against JAK2 stood at 318 nM; on JAK1 it was 12 nM.

Consider `CC(C)NC(=O)N1CC(CC#N)(n2cc(C(N)=O)c(Nc3ccccc3)n2)C1` [Example 38-3, 1-{3-(cyanomethyl)-1-[(1-methylethyl)carbamoyl]azetidin-3-yl}-3-(phenylamino)-1H-pyrazole-4-carboxamide], for which the IC50 stood at 185 nM on JAK2 and 10 nM on JAK1.

As to `N#CCC1(n2cc(C(N)=O)c(Nc3ccccc3)n2)CCN(C(=O)c2cccc(Cl)c2)CC1` [Example 34-21, l-{l-[(3-chlorophenyl)carbonyl]-4-(cyanomethyl)piperidin-4-yl}-3-(phenylamino)-lH-pyrazole-4-carboxamide], the IC50 on JAK2 was found to be 63 nM; on JAK1 it was 4 nM.

Take `N#CCC1(n2cc(C(N)=O)c(Nc3ccccc3)n2)CCCCC1` [Example 2-15, 1-[1-(cyanomethyl)cyclohexyl]-3-(phenylamino)-1H-pyrazole-4-carboxamide]: the results for the IC50 at JAK2 and on JAK1 were 92 nM and 10 nM, respectively.

In the case of `N#CCC1(n2cc(C(N)=O)c(Nc3ccccc3)n2)CN(CC(F)(F)F)C1` [Example 19, 1-[3-(Cyanomethyl)-1-(2,2,2-trifluoroethyl)azetidin-3-yl]-3-(phenylamino)-1H-pyrazole-4-carboxamide], the IC50 against JAK2 was 870 nM; on JAK1, 162 nM.

In the case of `CC(C)(C)OC(=O)N1CCC(CC#N)(n2cc(C(N)=O)c(Nc3ccc(F)cn3)n2)CC1` [Example 13-4, tert-butyl 4-(4-carbamoyl-3-(5-fluoropyridin-2-ylamino)-1H-pyrazol-1-yl)-4-(cyanomethyl)piperidine-1-carboxylate], the IC50 at JAK2 was found to be 183 nM; at JAK1, 4 nM.

Turning to `N#CCC1(n2cc(C(N)=O)c(Nc3ccnc(F)c3)n2)CCN(C(=O)C2(C(F)(F)F)CC2)CC1` [Example 34-56, 1-[4-(cyanomethyl)-1-{[1-(trifluoromethyl)cyclopropyl]carbonyl}piperidin-4-yl]-3-[(2-fluoropyridin-4-yl)amino]-1H-pyrazole-4-carboxamide], the values for the IC50 against JAK2 and at JAK1 were 40 nM and 2 nM, respectively.

For the molecule `N#CCC1(n2cc(C(N)=O)c(Nc3ccccc3)n2)CCN(C(=O)C2CCCCC2)CC1` [Example 34-13, 1-[4-(cyanomethyl)-1-(cyclohexylcarbonyl)piperidin-4-yl]-3-(phenylamino)-1H-pyrazole-4-carboxamide], the IC50 against JAK2 was determined as 44 nM; at JAK1, 2 nM.

As to `N#CCC1(n2cc(C(N)=O)c(Nc3ccc(F)cc3)n2)CCN(Cc2ccc(F)cn2)CC1` [Example 22-48, 1-{4-(cyanomethyl)-1-[(5-fluoropyridin-2-yl)methyl]piperidin-4-yl}-3-[(4-fluorophenyl)amino]-1H-pyrazole-4-carboxamide], the IC50 against JAK2 was 73 nM; on JAK1 it was 2 nM.

As to `COc1cccc(S(=O)(=O)N2CCC(CC#N)(n3cc(C(N)=O)c(Nc4ccccc4)n3)CC2)c1` [Example 37-10, 1-{4-(cyanomethyl)-1-[(3-methoxyphenyl)sulfonyl]piperidin-4-yl}-3-(phenylamino)-1H-pyrazole-4-carboxamide], the half-maximal inhibitory concentration (IC50) was 3 nM against JAK2 and 0.7 nM on JAK1.

Consider `CC(C)(C)OC(=O)N1CCC(CC#N)(n2cc(C(N)=O)c(Nc3ccncc3)n2)CC1` [Example 2-7, tert-butyl 4-[4-carbamoyl-3-(pyridin-4-ylamino)-1H-pyrazol-1-yl]-4-(cyanomethyl)piperidine-1-carboxylate], for which the IC50 on JAK2 came to 10 nM; on JAK1, 0.3 nM.
